Earlier results as cited in patent US20080175925A1, “Method and composition for the treatment of herpes virus” (priority 2007, published 2008).

Key:
[1] = system: HSV-1; conditions: guinea pig model
[2] = system: Herpesvirus hominis genital strain MVC 70 (herpesvirus h simplex 0-2); conditions: solution of 0.02% w/v
[3] = system: Herpesvirus hominis oral stain SUE (herpesvirus h simplex-1); conditions: solution of 0.02% w/v
[4] = system: HSV-1; conditions: in vitro

Q: What does the source list for Nc1nc2c(ncn2COCCO)c(=O)[nH]1 [Acyclovir]?
A: viral titers [1]: reduced viral titers; lesion development, duration and severity scores ([1]; compared to vehicle control or acyclovir): did not reduce lesion development, duration or severity

Q: With [H]/N=C(\N/C(=N/[H])NCCCCCCNC(=N)NC(=N)Nc1ccc(Cl)cc1)Nc1ccc(Cl)cc1 [chlorhexidine] as the compound, how does the “infectivity of HVH strain MVC 70 (HSV-2)” value [2] read?
A: Its value is “reduced the infectivity”.

Q: What about the “infectivity of HVH strain SUE (HSV-1)” value [3] of the same compound?
A: The value was “reduced the infectivity”.

Q: Which “inhibition of replication of HSV-1” value ([4]; addition of exogenous GSH) does the source give for NC(CCC(=O)NC(CS)C(=O)NCC(=O)O)C(=O)O (stereo not drawn) [GSH, 2-amino-5-{[2-[(carboxymethyl)amino]-1-(mercaptomethyl)-2-oxoethyl]amino}-5-oxopentanoic acid] here?
A: Its value is > 99%.

Q: And the “intracellular GSH levels after virus challenge” value ([4]; addition of exogenous GSH to infected cells)?
A: Its value is “restore its intracellular levels almost up to those found in uninfected cells”.
